Measured values taken from patent US20200017496A1 (priority 2017, published 2020).
Where two headings read alike, the source gives them in different places.

What was measured:
Assay in all cases: MIC of compounds alone and combined with antibacterials, broth microdilution (CLSI)
Type in all cases: cell-based
[1] = system: Escherichia coli (ECO) isolates; conditions: Escherichia coli, ATB alone
Outline: (§1)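 Compound MIC, and antibacterial MIC at each fixed compound level, taken by visual inspection as lowest concentration stopping growth. Inoculum: log-phase bacteria, final 5·10^5 CFU/mL, cation-adjusted Mueller-Hinton broth; 16-20 h, 35° C, ambient air.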

[2] = system: Enterobacter cloacae (ECL) isolates; conditions: for MIC: Enterobacter cloacae, ATB alone
Outline: as §1

[3] = system: Enterobacter aerogenes (EAE) isolates; conditions: for MIC: Klebsiella aerogenes
Outline: as §1

CC(C)(O/N=C(\C(=O)N[C@@H]1C(=O)N2C(C(=O)[O-])=C(C[n+]3ccccc3)CS[C@H]12)c1csc(N)n1)C(=O)O [CAZ, Ceftazidime]
256 mg/L: MIC ([2]; strain ECL 190310 (AmpC))
> 256 mg/L: MIC ([1]; strain ECO UFR185 (OXA-48), read-out: MIC) | MIC ([2]; strain ECL UFR198 (TEM-1, SHV-12, CTX-M-15, DHA-1, OXA-1, OXA-48)) | MIC ([2]; strain ECL 200138 (AmpC)) | MIC ([2]; strain ECL 260323 (AmpC)) | MIC ([2]; strain ECL UFR13 (TEM-1, SHV-12, CTX-M-9, OXA-48)) | MIC ([2]; strain ECL UFR14 (TEM-1, SHV-12, CTX-M-15, DHA-1, OXA-1, OXA-48)) | MIC ([2]; strain ECL UFR196 (TEM-1, CTX-M-15, OXA-1, OXA-48)) | MIC ([2]; strain ECL UFR200 (TEM-1, SHV-12, KPC-2)) | MIC [3] | MIC ([3]; strain EAE UFR202 (TEM-24), ATB alone, read-out: MIC) | MIC ([3]; strain EAE UFR213 (TEM-24), ATB alone, read-out: MIC)
1 mg/L: MIC ATB in combination ([2]; ECL 260508, AF1 @ 4 μg/mL) | MIC ATB in combination ([2]; ECL UFR14, AF1 @ 8 μg/mL) | MIC ATB in combination ([2]; ECL UFR84, AF1 @ 8 μg/mL) | MIC ATB in combination ([2]; ECL UFR85, AF1 @ 4 μg/mL) | MIC ([2]; strain ECL UFR194 (OXA-48)) | MIC ATB in combination ([2]; strain ECL UFR195, antibacterial combined with AF1 @ 4 μg/mL) | MIC ATB in combination ([2]; strain ECL UFR197, antibacterial combined with AF1 @ 4 μg/mL) | MIC ATB in combination ([3]; EAE UFR199, AF1 @ 4 μg/mL) | MIC ATB in combination ([3]; EAE UFR202, AF1 @ 8 μg/mL)
16 mg/L: MIC ([1]; strain ECO 190457 (CTX-M-15, OXA-1)) | MIC ([1]; strain ECO 260304 (CTX-M-15)) | MIC ATB in combination ([2]; ECL 260253, AF1 @ 4 μg/mL) | MIC ATB in combination ([2]; ECL UFR60, AF1 @ 4 μg/mL)
<0.25 mg/L: MIC ATB in combination ([2]; ECL 190408, AF1 @ 8 μg/mL) | MIC ATB in combination ([2]; ECL 260033, AF1 @ 8 μg/mL)
32 mg/L: MIC ([1]; strain ECO UFR175 (TEM-1, KPC-2, OXA-9)) | MIC ([1]; strain ECO UFR210 (SHV-12)) | MIC ATB in combination ([2]; ECL 260323, AF1 @ 8 μg/mL)
8 mg/L: MIC ([1]; strain ECO 190314 (CTX-M-1)) | MIC ([1]; strain ECO 200344 (CTX-M-1)) | MIC ([1]; strain ECO UFR174 (TEM-1, KPC-2, OXA-1)) | MIC ([1]; strain ECO UFR186 (TEM-1, CTX-M-14, OXA-48)) | MIC ([1]; strain ECO UFR187 (CTX-M-15, OXA-48)) | MIC ATB in combination ([2]; ECL 200138, AF1 @ 4 μg/mL) | MIC ATB in combination ([2]; ECL 260033, AF1 @ 4 μg/mL) | MIC ATB in combination ([3]; EAE 49469, AF1 @ 4 μg/mL)
<=0.25 μg/mL: MIC ATB in combination ([2]; ECL 190408, AF1 @ 4 μg/mL) | MIC ATB in combination ([2]; ECL 260508, AF1 @ 8 μg/mL) | MIC ATB in combination ([2]; ECL P99, AF1 @ 8 μg/mL) | MIC ATB in combination ([2]; ECL UFR12, AF1 @ 8 μg/mL) | MIC ATB in combination ([2]; ECL UFR85, AF1 @ 8 μg/mL) | MIC ATB in combination ([2]; ECL UFR194, AF1 @ 8 μg/mL) | MIC ATB in combination ([2]; ECL UFR200, AF1 @ 8 μg/mL) | MIC ATB in combination ([3]; EAE UFR201, AF1 @ 8 μg/mL)
512 mg/L: MIC ([2]; strain ECL 260033 (AmpC))
0.5 mg/L: MIC ([1]; strain ECO RGN238 (OXA-1)) | MIC ([1]; strain ECO UFR15 (TEM-1, OXA-48)) | MIC ATB in combination ([2]; ECL 200322, AF1 @ 4 μg/mL) | MIC ATB in combination ([2]; ECL 200322, AF1 @ 8 μg/mL) | MIC ATB in combination ([2]; ECL UFR12, AF1 @ 4 μg/mL) | MIC ATB in combination ([2]; ECL UFR13, AF1 @ 4 μg/mL) | MIC ATB in combination ([2]; ECL UFR13, AF1 @ 8 μg/mL) | MIC ATB in combination ([2]; ECL UFR70, AF1 @ 8 μg/mL) | MIC ATB in combination ([2]; ECL UFR194, AF1 @ 4 μg/mL) | MIC ATB in combination ([2]; ECL UFR200, AF1 @ 4 μg/mL) | MIC ATB in combination ([2]; strain ECL UFR195, antibacterial combined with AF1 @ 8 μg/mL) | MIC ATB in combination ([2]; strain ECL UFR196, antibacterial combined with AF1 @ 8 μg/mL) | MIC ATB in combination ([2]; strain ECL UFR197, antibacterial combined with AF1 @ 8 μg/mL) | MIC ATB in combination ([3]; EAE 200261, AF1 @ 8 μg/mL) | MIC ATB in combination ([3]; EAE UFR199, AF1 @ 8 μg/mL) | MIC ATB in combination ([3]; EAE UFR201, AF1 @ 4 μg/mL) | MIC ATB in combination ([3]; EAE UFR213, AF1 @ 4 μg/mL) | MIC ATB in combination ([3]; EAE UFR213, AF1 @ 8 μg/mL)
2 mg/L: MIC ([1]; strain ECO UFR86 (ompC-, ompF-), read-out: MIC) | MIC ATB in combination ([2]; ECL 190310, AF1 @ 8 μg/mL) | MIC ATB in combination ([2]; ECL 200138, AF1 @ 8 μg/mL) | MIC ATB in combination ([2]; ECL NEM146383, AF1 @ 4 μg/mL) | MIC ATB in combination ([2]; ECL NEM146383, AF1 @ 8 μg/mL) | MIC ATB in combination ([2]; ECL P99, AF1 @ 4 μg/mL) | MIC ATB in combination ([2]; ECL UFR14, AF1 @ 4 μg/mL) | MIC ATB in combination ([2]; ECL UFR70, AF1 @ 4 μg/mL) | MIC ([2]; strain ECL UFR12 (CTX-M-9, OXA-48)) | MIC ATB in combination ([2]; strain ECL UFR196, antibacterial combined with AF1 @ 4 μg/mL) | MIC ATB in combination ([3]; EAE 49469, AF1 @ 8 μg/mL) | MIC ATB in combination ([3]; EAE 200261, AF1 @ 4 μg/mL) | MIC ATB in combination ([3]; EAE UFR202, AF1 @ 4 μg/mL)
4 mg/L: MIC ([1]; strain ECO 190549 (CTX-M-1)) | MIC ([1]; strain ECO UFR191 (TEM-1, CTX-M-24, OXA-48)) | MIC ATB in combination ([2]; ECL 2185D, AF1 @ 8 μg/mL) | MIC ATB in combination ([2]; ECL 190310, AF1 @ 4 μg/mL) | MIC ATB in combination ([2]; ECL 260253, AF1 @ 8 μg/mL) | MIC ATB in combination ([2]; ECL UFR60, AF1 @ 8 μg/mL) | MIC ATB in combination ([2]; ECL UFR84, AF1 @ 4 μg/mL) | MIC ATB in combination ([2]; strain ECL UFR198, antibacterial combined with AF1 @ 4 μg/mL) | MIC ATB in combination ([2]; strain ECL UFR198, antibacterial combined with AF1 @ 8 μg/mL)
